# According to US6066485A, “Growth factor inducible serine/threonine phosphatase fin13” (New York University, priority 1997, dated 2000):
# Where two headings read alike, the source gives them in different places.
# T1: myc-FIN13 (Mus musculus, UniProt Q61074)
# T1 construct: in-frame with, and N-terminal to, the FIN13 open reading frame; expressed in transfected cells; host or cells: HeLa
# T1 sequence (Q61074 151-542): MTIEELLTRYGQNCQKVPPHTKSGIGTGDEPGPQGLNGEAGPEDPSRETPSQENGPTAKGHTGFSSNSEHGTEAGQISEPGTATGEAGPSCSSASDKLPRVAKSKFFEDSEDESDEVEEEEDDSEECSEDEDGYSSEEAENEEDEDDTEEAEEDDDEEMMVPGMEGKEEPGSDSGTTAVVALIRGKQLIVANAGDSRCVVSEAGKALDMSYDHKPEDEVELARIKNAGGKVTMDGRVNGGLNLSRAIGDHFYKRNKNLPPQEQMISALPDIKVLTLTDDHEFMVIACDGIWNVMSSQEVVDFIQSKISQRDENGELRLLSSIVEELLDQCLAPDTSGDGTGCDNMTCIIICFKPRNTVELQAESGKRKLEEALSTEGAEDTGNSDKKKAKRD
# T2: his-FIN13 (Mus musculus, UniProt Q61074)
# T2 construct: Purified his-tagged full length FIN13 (his-FIN13); made in house; host or cells: E. coli BL21(DE3)
# T2 sequence (Q61074 151-542 limits assumed): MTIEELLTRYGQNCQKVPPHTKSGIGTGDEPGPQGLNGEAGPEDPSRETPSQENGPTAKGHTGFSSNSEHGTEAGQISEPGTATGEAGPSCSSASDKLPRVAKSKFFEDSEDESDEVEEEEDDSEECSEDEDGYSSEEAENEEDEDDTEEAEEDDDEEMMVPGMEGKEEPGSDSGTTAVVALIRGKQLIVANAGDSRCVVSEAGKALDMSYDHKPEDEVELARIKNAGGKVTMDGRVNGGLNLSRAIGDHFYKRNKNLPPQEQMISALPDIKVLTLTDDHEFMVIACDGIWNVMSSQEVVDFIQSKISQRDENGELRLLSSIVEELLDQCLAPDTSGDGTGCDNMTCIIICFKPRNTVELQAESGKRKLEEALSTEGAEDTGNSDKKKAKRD
# Tests used:
# FIN13 mRNA [1] = test: FIN13 mRNA in ovaries of mice stimulated with DES; assay type: in vivo; settings: mouse
# Method: Northern analysis. RNA was electrophoresed on a 1% formaldehyde agarose gel, transferred overnight in 20×SSC to Genescreen-Plus nylon filters (Du Pont) and fixed by u.v. crosslinking. Filters were prehybridized, hybridized with radiolabeled cDNA probes and washed under standard conditions. To stimulate folliculogensis, immature mice (3 weeks) were injected subcutaneously with diethylstilbesterol (DES) or vehicle essentially as described previously (Guthridge et al., Growth Factors, 7:15 (1992)), and RNA was prepared from ovaries four days after stimulation.
# myc-FIN13 = target: T1, myc-FIN13; test: Phosphatase assay of myc-FIN13 immunoprecipitated from transfected HeLa cells; assay type: biochemical
# Method: FIGS. 6A-6C. Phosphatase activity and expression of FIN13 in mammalian cells. HeLa cells transfected with either pRK5 vector or pRKmyc-FIN13 (expressing myc-FIN13) and harvested 24 h later, were lysed in lysis buffer and cleared extracts ([…]) were immunoprecipitated with either anti-myc antibodies (9E10) or anti-FIN13 antiserum (630). IPs were then divided and subjected to either Western analysis for the detection of FIN13 expression or a phosphatase assay. For the detection of FIN13 (A), 1/4 of the IP was boiled in sample buffer and loaded onto a 10% polyacrylamide gel, electrophoresed and transferred to a nitrocellulose filter. Western blot analysis was performed using the 630 antiserum at 1:500 as described in Materials and Methods. For analysis of phosphatase activity (B), the ability of myc-FIN13 immunoprecipitates (1/8 of IP) to dephosphorylate ^32 P-labelled casein was examined in vitro in the presence of okadaic acid and MnCl2 as described in Materials and Methods. […]
# Phosphatase assay. The phosphatase activity of purified FIN13 expressed in bacteria as a fusion protein with N- and C-terminal his-tags was assessed in vitro using ^32 P-labelled casein as a substrate. […] In addition, the phosphatase activity of FIN13 expressed in HeLa cells was also determined in an immune complex using ^32 P-labelled casein as a substrate. […]
# his-FIN13 = target: T2, his-FIN13; test: Phosphatase assay of bacterially expressed his-FIN13 with 32P-labelled casein; assay type: biochemical
# Method: FIG. 5. Phosphatase activity of bacterially expressed FIN13. Purified his-tagged full length FIN13 (his-FIN13) or his-tagged catalytic domain FIN13 (his-FIN13-cat) were examined for their ability to dephosphorylate ^32 P-labelled cascin in vitro as described in the Materials and Methods. Phosphatase assays were performed in the absence of his-FIN13 (No FIN13; open bar) or with his-FIN13 incubated in the presence of 10 mM of the indicated divalent cation (MgCl2, ZnCl2, CaCl2 or MnCl2)(solid bars) or in the presence of the indicated mM concentrations of MnCl2 (half-tone bars). +EDTA: indicates his-FIN13 incubated in the presence of 10 mM EDTA and 10 mM MnCl2. his-FIN13-cat was incubated in the presence of the indicated mM concentrations of MnCl2 (cross-hatched bars). his-FIN13 was also incubated in the presence of 1 μM okadaic acid (OA), 20 mg/ml poly L-lysine (PL-L), 20 mg/ml protamine sulfate (PS). All incubations were performed for 1 h at 30° C.
# Preparation of ^32 P-labelled casein. Casein (10 mg)(Sigma) was labelled with ^32 P using 10U of the catalytic subunit of cAMP dependent protein kinase (Sigma) in 50 mM Tris-HCl pH 7.0, 0.1 mM EGTA, 10 mM Mg-acetate, 0.1% β-mercaptoethanol, and 0.5 mCi of ^32 PγATP for 12 h at 30° C. The reaction mixture was then precipitated at 4° C. in 20% TCA. Labelled casein was recovered by centrifugation, the pellet washed 5 times in 100% acetone and resuspended in 50 mM Tris-HCl, 0.1 mM EGTA.
# Phosphatase assay. The phosphatase activity of purified FIN13 expressed in bacteria as a fusion protein with N- and C-terminal his-tags was assessed in vitro using ^32 P-labelled casein as a substrate. For preparation of his-FIN13 and his-FIN13-cat from bacteria, the BL21(DE3) strain transformed with pEThis-FIN13 or pEThis-FIN13-cat were induced with 0.2 mM IPTG for 2 h following which the cells were recovered by centrifugation, resuspended in column buffer (50 mM sodium phosphate, pH 8.0, 300 mM NaCl, 1 mM PMSF) and frozen overnight at -70° C. The bacteria were then lysed by sonication at 4° C. and the extract cleared by centrifugation. The supernatant was then adsorbed to Ni-NTA-agarose (Qiagen) at 4° C. for 1 h. The resin was then washed extensively in column buffer without PMSF and his-FIN13 or his-FIN13-cat were eluted using 25 mM Tris-HCl pH 7.2, 100 mM NaCl containing […] imidazole (Sigma). In addition, the phosphatase activity of FIN13 expressed in HeLa cells was also determined in an immune complex using ^32 P-labelled casein as a substrate. For preparation of immune complexes of myc-FIN13, HeLa cells were transfected with […] of pRKmyc-FIN13 or pRK5. Cells were lysed 24 h after transfection in lysis buffer (10 mM Na-phosphate pH 7.4, 100 mM NaCl, 1% TRITON X-100, 10 mM EDTA) also containing a protease/phosphatase inhibitor cocktail (1 mM PMSF, 1 μg/ml pepstatin, 1 μg/ml leupeptin, 1 μg/ml aprotinin, 10 mM Na-orthovanadate, 80 mM NaF, 80 mM β-glycerolphosphate, 10 μM okadaic acid). Cleared lysates (100 μg total protein) were immunoprecipitated with anti-myc monoclonal antibody (9E10) adsorbed to 30 μl protein G sepharose (Zymed) or anti-FIN13 antiserum adsorbed to 30 μl protein A sepharose (Zymed) for 1.5 h at 4° C. The anti-FIN13 polyclonal antiserum (630) was generated against the full length his-FIN13 expressed and purified from bacteria. The IPs were then washed 5 times with lysis buffer, once with 10 mM Tris-HCl pH 7.0, 100 mM NaCl and 5 mM MnCl2, and twice with phosphatase reaction buffer (10 mM Tris-HCl pH 7.0, 0.1 mM EGTA, 10 mM DTT and 10 mM MnCl2) containing 1 μM okadaic acid. Purified his-FIN13, his-FIN13-cat or myc-lPs were then examined for phosphatase activity by incubating the indicated FIN13 preparation in the presence of phosphatase reaction buffer containing ^32 P-labelled casein (1×10^5 cpm; approx. 1 μl) at 30° C. for up to 2 h.
# FIN13 mRNA [2] = test: Northern analysis of FIN13 mRNA induction in NIH 3T3 cells; assay type: cell-based, mouse
# Method: FIG. 4. Regulation of FIN13 (and other FINs) mRNA in response to FGF-4. NIH 3T3 cells were starved for 48 h in DMEM/0.5% CS and stimulated for the indicated times up to 24 h with 100 ng/ml FGF-4. A15 cells and NIH 3T3 cells growing asynchronously in the presence of DMEM/10% CS are indicated as A15 and 3T3 respectively. Total RNA (6 μg) was examined by Northern analysis with ^32 P-labelled cDNAs for the indicated FIN genes shown on the left. The position of 28S and 18S rRNA are indicated on the right.
# (§1) Cell culture. Mouse NIH 3T3 cells and A15 cells were cultured in Dulbecco's modified Eagle's medium (DMEM) containing 10% calf serum (CS). A15 cells are a NIH 3T3 cell line transformed with a human genomic fragment of the FGF-4 gene and have been previously described (Delli Bovi and Basilico, 1987, Proc. Natl. Acad. Sci. USA 84:5660). Rat pheochromocytoma PC12 cells were cultured in DMEM containing 10% heat inactivated horse serum (HS) (Gemini Bioproducts), 5% fetal bovine serum (FBS) (Gemini Bioproducts). […] Greater than 90% of PC12 cells had differentiated after 96 h or FGF-4 or NGF treatment as determined by the induction of neurite-like processes. […]
# A maximum induction of 6-fold following 18 h stimulation was observed. […] The effect of cycloheximide on the induction of FIN13 mRNA was evaluated as follows. […]
# Protein phosphatase 2A = Protein phosphatase 2A (Homo sapiens, UniProt P67775); test: Protein phosphatase 2A control phosphatase assay; assay type: biochemical; settings: 2 h, presence of okadaic acid
# Protein phosphatase 2A, sequence (P67775 whole entry): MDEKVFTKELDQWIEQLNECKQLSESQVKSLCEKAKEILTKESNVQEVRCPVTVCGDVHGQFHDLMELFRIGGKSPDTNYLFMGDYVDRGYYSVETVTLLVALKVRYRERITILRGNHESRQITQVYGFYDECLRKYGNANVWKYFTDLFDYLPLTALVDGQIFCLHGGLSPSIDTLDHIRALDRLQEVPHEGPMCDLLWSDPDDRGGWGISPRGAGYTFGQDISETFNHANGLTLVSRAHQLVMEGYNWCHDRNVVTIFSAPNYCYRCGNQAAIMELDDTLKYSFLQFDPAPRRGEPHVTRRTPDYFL
# FIN13 transcripts = test: Regulation of FIN13 transcripts in PC12 cells; assay type: cell-based, rat; settings: starved PC12 cells
# Method: as §1, with “Bioproducts). For stimulation with growth factors, NIH 3T3 cells were grown to 60-80% confluence, starved for 48 h in DMEM containing 0.5% CS and then stimulated with 50 ng/ml recombinant human FGF-4 or 10% CS for up to 24 h. Where indicated 10 μg/ml cycloheximide was added simultaneously with the growth factor. PC12 cells were starved for 48 h in DMEM containing 4.9 g/l glucose, 0.1% HS and 5% FBS for up to 24 h.” for “Bioproducts).”
# Cells were starved for 48 h in 0.2% serum and then stimulated with either serum or FGF-4. […] Similar regulation of FIN13 was observed when starved PC12 cells were stimulated with FGF-4 with maximum expression detected at 12 h which decreased until 96 h.
molecule,measurement,setting,value
"CC/C(=C(/CC)c1ccc(O)cc1)c1ccc(O)cc1 [DES, diethylstilbesterol]",expression of fin13 mRNA in ovaries,FIN13 mRNA [1],increases expression
O=C(O)CN(CCN(CC(=O)O)CC(=O)O)CC(=O)O [EDTA],effect on FIN13 activity in 9E10 IPs,myc-FIN13; EDTA 10 mM,abolished
same,effect on his-FIN13 phosphatase activity,his-FIN13,abolished activity
C[C@@H]1C[C@@H]([C@H](O)CC2CC(=O)NC(=O)C2)C(=O)[C@@H](C)C1 [cycloheximide],induction of FIN13 mRNA by FGF-4 in presence of protein synthesis inhibitor,"FIN13 mRNA [2]; 18 h FGF-4, 10 mg/ml cycloheximide",did not result in induction of FIN13
C=C1[C@@H](O)[C@@H]2O[C@]3(CC[C@H](/C=C/[C@@H](C)[C@@H]4CC(C)=C[C@@]5(O[C@H](C[C@@](C)(O)C(=O)O)CC[C@H]5O)O4)O3)CC[C@H]2O[C@@H]1[C@@H](O)C[C@H](C)[C@H]1O[C@@]2(CCCCO2)CC[C@H]1C [okadaic acid],effect on his-FIN13 phosphatase activity,his-FIN13; 1 μM okadaic acid,not inhibited
same,effect on PP2A activity,Protein phosphatase 2A,abolished
"FGF-4: recombinant human fibroblast growth factor 4 (protein, UniProt P08620 31-206, looked up) Fibroblast growth factor 4: APTAPNGTLEAELERRWESLVALSLARLPVAAQPKEAAVQSGAGDYLLGIKRLRRLYCNVGIGFHLQALPDGRIGGAHADTRDSLLELSPVERGVVSIFGVASRFFVAMSSKGKLYGSPFFTDECTFKEILLPNNYNAYESYKYPGMFIALSKNGKTKKGNRVSPTMKVTHFLPRL",time of maximum FIN13 expression,FIN13 transcripts,12 h
same,maximum induction of FIN13 mRNA,FIN13 mRNA [2]; 18 h stimulation of NIH 3T3 cells,6 fold
"myc-FIN13: FIN13 N-terminally fused to the myc epitope, expressed from pRKmyc-FIN13 (protein) MTIEELLTRYGQNCQKVPPHTKSGIGTGDEPGPQGLNGEAGPEDPSRETPSQENGPTAKGHTGFSSNSEHGTEAGQISEPGTATGEAGPSCSSASDKLPRVAKSKFFEDSEDESDEVEEEEDDSEECSEDEDGYSSEEAENEEDEDDTEEAEEDDDEEMMVPGMEGKEEPGSDSGTTAVVALIRGKQLIVANAGDSRCVVSEAGKALDMSYDHKPEDEVELARIKNAGGKVTMDGRVNGGLNLSRAIGDHFYKRNKNLPPQEQMISALPDIKVLTLTDDHEFMVIACDGIWNVMSSQEVVDFIQSKISQRDENGELRLLSSIVEELLDQCLAPDTSGDGTGCDNMTCIIICFKPRNTVELQAESGKRKLEEALSTEGAEDTGNSDKKKAKRD",phosphatase activity of immunoprecipitate in vitro,"myc-FIN13; IP with 9E10 or 630, okadaic acid and MnCl2 present",exhibited phosphatase activity
